{
  "source": "PubChem BioAssay (NCI)",
  "experiment_in_all_cases": "NCI-60 cell line screen, 48 h",
  "key": {"OVCAR-4 ovarian": {"test_system": "OVCAR-4 ovarian"}, "MOLT-4 leukemia": {"test_system": "MOLT-4 leukemia"}, "LOX IMVI melanoma": {"test_system": "LOX IMVI melanoma"}, "CAKI-1 renal": {"test_system": "CAKI-1 renal"}, "PC-3 prostate": {"test_system": "PC-3 prostate"}, "HCC-2998 colon": {"test_system": "HCC-2998 colon"}, "EKVX NSCLC": {"test_system": "EKVX NSCLC"}, "OVCAR-3 ovarian": {"test_system": "OVCAR-3 ovarian"}, "HCT-116 colon": {"test_system": "HCT-116 colon"}, "786-0 renal": {"test_system": "786-0 renal"}, "SN12C renal": {"test_system": "SN12C renal"}, "TK-10 renal": {"test_system": "TK-10 renal"}, "HT29 colon": {"test_system": "HT29 colon"}, "SNB-75 CNS": {"test_system": "SNB-75 CNS"}, "HS 578T breast": {"test_system": "HS 578T breast"}, "NCI-H226 lung": {"test_system": "NCI-H226 lung"}, "SK-MEL-5 melanoma": {"test_system": "SK-MEL-5 melanoma"}, "SF-295 CNS": {"test_system": "SF-295 CNS"}, "UACC-62 melanoma": {"test_system": "UACC-62 melanoma"}, "SNB-19 CNS": {"test_system": "SNB-19 CNS"}, "LXFL 529 NSCLC": {"test_system": "LXFL 529 NSCLC"}, "MCF7 breast": {"test_system": "MCF7 breast"}, "MDA-N": {"test_system": "MDA-N"}, "MALME-3M melanoma": {"test_system": "MALME-3M melanoma"}, "DLD-1 colon": {"test_system": "DLD-1 colon"}, "UO-31 renal": {"test_system": "UO-31 renal"}, "A498 renal": {"test_system": "A498 renal"}, "KM12 colon": {"test_system": "KM12 colon"}, "NCI-H460 lung": {"test_system": "NCI-H460 lung"}, "NCI-H522 lung": {"test_system": "NCI-H522 lung"}, "RXF 393 renal": {"test_system": "RXF 393 renal"}, "HOP-62 NSCLC": {"test_system": "HOP-62 NSCLC"}, "A549 NSCLC": {"test_system": "A549 NSCLC"}, "HCT-15 colon": {"test_system": "HCT-15 colon"}, "K-562 leukemia": {"test_system": "K-562 leukemia"}, "U251 CNS": {"test_system": "U251 CNS"}, "RPMI-8226 leukemia": {"test_system": "RPMI-8226 leukemia"}, "DMS 114 small cell lung": {"test_system": "DMS 114 small cell lung"}, "HOP-92 NSCLC": {"test_system": "HOP-92 NSCLC"}, "SF-539 CNS": {"test_system": "SF-539 CNS"}, "IGROV1 ovarian": {"test_system": "IGROV1 ovarian"}, "DU-145 prostate": {"test_system": "DU-145 prostate"}, "XF 498 CNS": {"test_system": "XF 498 CNS"}, "RXF-631 renal": {"test_system": "RXF-631 renal"}, "DMS 273 small cell lung": {"test_system": "DMS 273 small cell lung"}, "SR leukemia": {"test_system": "SR leukemia"}, "NCI/ADR-RES ovarian": {"test_system": "NCI/ADR-RES ovarian"}, "SW-620 colon": {"test_system": "SW-620 colon"}, "SF-268 CNS": {"test_system": "SF-268 CNS"}, "T-47D breast": {"test_system": "T-47D breast"}, "M19-MEL melanoma": {"test_system": "M19-MEL melanoma"}, "SK-MEL-2 melanoma": {"test_system": "SK-MEL-2 melanoma"}, "NCI-H23 lung": {"test_system": "NCI-H23 lung"}, "KM20L2 colon": {"test_system": "KM20L2 colon"}, "CCRF-CEM leukemia": {"test_system": "CCRF-CEM leukemia"}, "OVCAR-8 ovarian": {"test_system": "OVCAR-8 ovarian"}, "SK-MEL-28 melanoma": {"test_system": "SK-MEL-28 melanoma"}, "UACC-257 melanoma": {"test_system": "UACC-257 melanoma"}, "COLO 205 colon": {"test_system": "COLO 205 colon"}, "HL-60(TB) leukemia": {"test_system": "HL-60(TB) leukemia"}, "M14 melanoma": {"test_system": "M14 melanoma"}, "SK-OV-3 ovarian": {"test_system": "SK-OV-3 ovarian"}, "OVCAR-5 ovarian": {"test_system": "OVCAR-5 ovarian"}, "ACHN renal": {"test_system": "ACHN renal"}},
  "note": "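Interpolation was linear, between the two tested concentrations surrounding the appropriate level; five concentrations were tested over 48 hours in 96-well plates. The concentration for full growth arrest is given as TGI.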",
  "data": [
    {"smiles": "COC(=O)c1cc(CNCCc2c[nH]c3ccccc23)on1", "values": [
      {"measurement": "TGI", "setting": "OVCAR-4 ovarian", "value": "> 83.3", "unit": "µM"},
      {"measurement": "TGI", "setting": "MOLT-4 leukemia", "value": "> 100", "unit": "µM"},
      {"measurement": "TGI", "setting": "LOX IMVI melanoma", "value": "> 100", "unit": "µM"},
      {"measurement": "TGI", "setting": "CAKI-1 renal", "value": "> 100", "unit": "µM"},
      {"measurement": "TGI", "setting": "PC-3 prostate", "value": "> 100", "unit": "µM"},
      {"measurement": "TGI", "setting": "HCC-2998 colon", "value": "> 100", "unit": "µM"},
      {"measurement": "TGI", "setting": "EKVX NSCLC", "value": "> 100", "unit": "µM"},
      {"measurement": "TGI", "setting": "OVCAR-3 ovarian", "value": "> 100", "unit": "µM"},
      {"measurement": "TGI", "setting": "HCT-116 colon", "value": "> 100", "unit": "µM"},
      {"measurement": "TGI", "setting": "786-0 renal", "value": "> 94.6", "unit": "µM"},
      {"measurement": "TGI", "setting": "SN12C renal", "value": "> 100", "unit": "µM"},
      {"measurement": "TGI", "setting": "TK-10 renal", "value": "> 100", "unit": "µM"},
      {"measurement": "TGI", "setting": "HT29 colon", "value": "> 100", "unit": "µM"},
      {"measurement": "TGI", "setting": "SNB-75 CNS", "value": "> 100", "unit": "µM"},
      {"measurement": "TGI", "setting": "HS 578T breast", "value": "> 100", "unit": "µM"},
      {"measurement": "TGI", "setting": "NCI-H226 lung", "value": "> 100", "unit": "µM"},
      {"measurement": "TGI", "setting": "SK-MEL-5 melanoma", "value": "> 100", "unit": "µM"},
      {"measurement": "TGI", "setting": "SF-295 CNS", "value": "> 100", "unit": "µM"},
      {"measurement": "TGI", "setting": "UACC-62 melanoma", "value": "> 100", "unit": "µM"},
      {"measurement": "TGI", "setting": "SNB-19 CNS", "value": "> 100", "unit": "µM"},
      {"measurement": "TGI", "setting": "LXFL 529 NSCLC", "value": "> 100", "unit": "µM"},
      {"measurement": "TGI", "setting": "MCF7 breast", "value": "> 100", "unit": "µM"},
      {"measurement": "TGI", "setting": "MDA-N", "value": "> 100", "unit": "µM"},
      {"measurement": "TGI", "setting": "MALME-3M melanoma", "value": "> 100", "unit": "µM"},
      {"measurement": "TGI", "setting": "DLD-1 colon", "value": "> 100", "unit": "µM"},
      {"measurement": "TGI", "setting": "UO-31 renal", "value": "> 100", "unit": "µM"},
      {"measurement": "TGI", "setting": "A498 renal", "value": "> 100", "unit": "µM"},
      {"measurement": "TGI", "setting": "KM12 colon", "value": "> 100", "unit": "µM"},
      {"measurement": "TGI", "setting": "NCI-H460 lung", "value": "> 100", "unit": "µM"},
      {"measurement": "TGI", "setting": "NCI-H522 lung", "value": 73.5, "unit": "µM"},
      {"measurement": "TGI", "setting": "RXF 393 renal", "value": "> 100", "unit": "µM"},
      {"measurement": "TGI", "setting": "HOP-62 NSCLC", "value": "> 100", "unit": "µM"},
      {"measurement": "TGI", "setting": "A549 NSCLC", "value": "> 100", "unit": "µM"},
      {"measurement": "TGI", "setting": "HCT-15 colon", "value": "> 100", "unit": "µM"},
      {"measurement": "TGI", "setting": "K-562 leukemia", "value": "> 100", "unit": "µM"},
      {"measurement": "TGI", "setting": "U251 CNS", "value": "> 100", "unit": "µM"},
      {"measurement": "TGI", "setting": "RPMI-8226 leukemia", "value": "> 100", "unit": "µM"},
      {"measurement": "TGI", "setting": "DMS 114 small cell lung", "value": "> 100", "unit": "µM"},
      {"measurement": "TGI", "setting": "HOP-92 NSCLC", "value": "> 100", "unit": "µM"},
      {"measurement": "TGI", "setting": "SF-539 CNS", "value": "> 100", "unit": "µM"},
      {"measurement": "TGI", "setting": "IGROV1 ovarian", "value": "> 100", "unit": "µM"},
      {"measurement": "TGI", "setting": "DU-145 prostate", "value": "> 100", "unit": "µM"},
      {"measurement": "TGI", "setting": "XF 498 CNS", "value": 67.4, "unit": "µM"},
      {"measurement": "TGI", "setting": "RXF-631 renal", "value": "> 100", "unit": "µM"},
      {"measurement": "TGI", "setting": "DMS 273 small cell lung", "value": "> 100", "unit": "µM"},
      {"measurement": "TGI", "setting": "SR leukemia", "value": "> 100", "unit": "µM"},
      {"measurement": "TGI", "setting": "NCI/ADR-RES ovarian", "value": "> 100", "unit": "µM"},
      {"measurement": "TGI", "setting": "SW-620 colon", "value": "> 100", "unit": "µM"},
      {"measurement": "TGI", "setting": "SF-268 CNS", "value": "> 100", "unit": "µM"},
      {"measurement": "TGI", "setting": "T-47D breast", "value": "> 100", "unit": "µM"},
      {"measurement": "TGI", "setting": "M19-MEL melanoma", "value": "> 100", "unit": "µM"},
      {"measurement": "TGI", "setting": "SK-MEL-2 melanoma", "value": "> 100", "unit": "µM"},
      {"measurement": "TGI", "setting": "NCI-H23 lung", "value": "> 100", "unit": "µM"},
      {"measurement": "TGI", "setting": "KM20L2 colon", "value": "> 100", "unit": "µM"},
      {"measurement": "TGI", "setting": "CCRF-CEM leukemia", "value": "> 100", "unit": "µM"},
      {"measurement": "TGI", "setting": "OVCAR-8 ovarian", "value": "> 100", "unit": "µM"},
      {"measurement": "TGI", "setting": "SK-MEL-28 melanoma", "value": "> 100", "unit": "µM"},
      {"measurement": "TGI", "setting": "UACC-257 melanoma", "value": "> 100", "unit": "µM"},
      {"measurement": "TGI", "setting": "COLO 205 colon", "value": "> 100", "unit": "µM"},
      {"measurement": "TGI", "setting": "HL-60(TB) leukemia", "value": "> 100", "unit": "µM"},
      {"measurement": "TGI", "setting": "M14 melanoma", "value": "> 100", "unit": "µM"},
      {"measurement": "TGI", "setting": "SK-OV-3 ovarian", "value": "> 100", "unit": "µM"},
      {"measurement": "TGI", "setting": "OVCAR-5 ovarian", "value": "> 100", "unit": "µM"},
      {"measurement": "TGI", "setting": "ACHN renal", "value": "> 100", "unit": "µM"}
    ]}
  ]
}
